Experimental data from US5081289A, “Synthesis and isolation of nopaline and its analogues” (The University of Alabama in Birmingham, priority 1989, dated 1992).
Values after ≈ are worked out from the molar mass of the structure shown. Where two headings read alike, the source gives them in different places.

What was measured:
Solubility in H2O = assay type: physicochemical; conditions: water, 22° C.
[1] = Conversion (cyclization) of nopaline / isonopaline to the pyro-derivatives; rate of formation; assay type: physicochemical; conditions: for cyclization: above pH 5.5; for reaction rate constant: conversion to pyro-derivative; for first order rate constant, formation of pyrrolidonecarboxylic acid derivative: pH 3.2, 60° C.; for time to completion of conversion to the pyrrolidonecarboxylic acid derivative: pH 3.2, 120° C. (autoclave)
[2] = Stability in bacteria-free tumor extract; assay type: physicochemical; conditions: pH 5.3, 10 days, room temperature
[3] = test system: A. tumefaciens (strain C-58); experiment: Growth of A. tumefaciens (turbidity A650, doubling time) with compound as source of carbon and nitrogen; assay type: cell-based; conditions: for Doubling Time: 0.0045 g/ml in control medium; for utilization as a source of carbon and nitrogen: preinduced and uninduced bacteria
Procedure: The minimal medium for bacterial growth was the mineral salt mixture described by Petit and Tempe, hereinbefore cited to which glucose was aded to make the final concentration 0.005 g/ml. The control medium was the mineral salt mixture from which the ammonium sulfate was omitted. In order to test whether they would support bacterial growth either nopaline, isonopaline, or the pyrrolidonecarboxylic acid derivative of nopaline or pyronopaline were added separately to the control medium to make the final concentration 0.0045 g/ml.
A single colony from a plate on minimal medium was adapted to liquid medium that contained nopaline. When visibly turbid, the nopaline liquid culture was innoculated (1% innoculum) into minimal liquid medium and into nopaline liquid medium. When turbid, these two cultures were used as inoculum to test the nopaline, isonopaline and pyronopaline in liquid culture media (20 ml in 125 ml flasks). After innoculation (1%), cultures were agitated on a rotary shaker at 1 cycle per second, and growth was monitored by measurement of the turbidity in a spectrophotometer. The turbidity (A650) readings were plotted on log paper and the doubling time was determined from the logarithmic portion of the growth curve (Table II).
Table II contains the results of experiments to test the ability of A. tumefaciens (strain C-58) to utilize the isomers and derivatives of nopaline as a source of carbon and nitrogen. […] The results are the same for both preinduced and uninduced bacteria. As expected the doubling time in minimal medium is greater than that in either nopaline or pyronopaline, since metabolism by the organism is more complex in the […] medium.

octopine dehydrogenase [4] = experiment: Oxidation catalyzed by octopine dehydrogenase; assay type: biochemical, scallops (Pecten maximus); conditions: nopaline / isonopaline as substrate
octopine dehydrogenase [5] = conditions: known substrate specificity; cited from earlier work
[6] = Reverse reaction (stability) of the pyrrolidonecarboxylic acid derivative of nopaline at 100° C.; assay type: physicochemical; conditions: 100° C. in NaOH, Na2CO3 (both at 0.1M), or HCl (3M)

Compound	solubility (Solubility in H2O) [mg/mL]	relative rate of reaction of nopaline vs isonopaline ([1]; 22° C. and 100° C.)	time of conversion to the pyro-derivative ([1]; 60° C.) [h]	time for completed conversion to the pyro-derivative ([1]; 100° C., pH 0.0)	time for quantitative conversion to the pyro-derivative ([1]; 100° C., pH 3.2)	time of conversion to the pyro-derivative ([1]; 121° C.)	cyclization [1]	reaction rate constant [1] [s⁻¹]	first order rate constant, formation of pyrrolidonecarboxylic acid derivative [1]	time to completion of conversion to the pyrrolidonecarboxylic acid derivative [1] [min]	conversion to the pyro-derivatives ([1]; pH above approximately 5.5, 48 hours at 100° C.)	change of concentration in tumor extract [2]	Doubling Time ([3]; Preinduced Innoculum)	Doubling Time ([3]; Uninduced Innoculum)	utilization as a source of carbon and nitrogen [3]	oxidation catalyzed by octopine dehydrogenase (octopine dehydrogenase [4])	time for completed conversion to the pyro-derivative ([1]; 60° C., pH 3.2)	oxidation catalyzed by octopine dehydrogenase (octopine dehydrogenase [5])	reverse reaction [6]
N=C(N)NCCC[C@H](N[C@H](CCC(=O)O)C(=O)O)C(=O)O [Nopaline, N-(4-((aminoiminomethyl)amino-)-1S-carboxybutyl)-2R-2-pentanedioic acid]	6.3 (≈ 20.7 mM)	faster reaction	18 to 24	approximately 1.0 hours	approximately 2 hours	approximately 30 minutes	neither nopaline nor isonopaline is demonstrable	4.6e-07	4.6×10^-7 S^-1	30	too slow to be readily measured	did not change	2.8 h	2.8 h	metabolized	catalyzed the oxidation of nopaline			
N=C(N)NCCC[C@H](N[C@@H](CCC(=O)O)C(=O)O)C(=O)O [Isonopaline]	21.3 (≈ 70 mM)						neither nopaline nor isonopaline is demonstrable	3.5e-08	0.35×10^-7 S^-1	30			no growth	no growth	completely ineffective	not that of isonopaline	approximately 100 hours		
C[C@H](N[C@@H](CCCNC(=N)N)C(=O)O)C(=O)O [L-allooctopine]																		not of L-allooctopine	
N=C(N)NCCC[C@@H](C(=O)O)N1C(=O)CC[C@@H]1C(=O)O [Pyronopaline, N-(4-((aminoiminomethyl)amino)-1S-carboxybutyl)-2-pyrrolidone-5R-carboxylic acid]	34.5 (≈ 121 mM)											did not change	3.1 h	3.1 h	metabolized				No significant reverse reaction
C[C@@H](N[C@@H](CCCNC(=N)N)C(=O)O)C(=O)O [D-octopine]																		catalyzes the oxidation of D-octopine	
